Test results published in publication PMC5623949, “Exploiting the 2-Amino-1,3,4-thiadiazole Scaffold To Inhibit Trypanosoma brucei Pteridine Reductase in Support of Early-Stage Drug Discovery” (ACS Omega, 2017).

How the values were obtained:
hERG = molecular target: T1, hERG (Homo sapiens, UniProt Q12809); design: hERG channel inhibition
T1 construct: gene KCNH2
Protocol: (§1) Independent of the effect of any antiparasitic potential of compounds, they were evaluated using a panel of early-toxicity assays comprising cytotoxicity (A549, human lung adenocarcinoma epithelial cell line and WI-38, human lung fibroblasts), mitochondrial toxicity (786-O, human renal carcinoma cell line), hERG inhibition,[31] cytochrome P450 inhibition (CYP1A2, CYP2C9, CYP2C19, CYP2D6, and CYP3A4),[31] and Aurora B kinase inhibition. […] For the two compounds active against TbPTR1 (4m and 4o), IC50 against hERG, cytochrome P450, and mitochondrial toxicity were determined (reported in Supporting Information). We observed that the dose of compounds 4m, 4o, 4c, and 3k was 4 μM in the potentiation assays. […] In the case of hERG, CYP2D6, CYP2A9, CYP2C19, and mitochondrial toxicity, there is a selectivity index of around 3–4 fold, thus showing an acceptable profile.

hDHFR = molecular target: T2, hDHFR (Homo sapiens, UniProt P00374); assay: biochemical; design: human DHFR enzyme inhibition
T2 construct: gene DHFR
T2 sequence (P00374 1-187): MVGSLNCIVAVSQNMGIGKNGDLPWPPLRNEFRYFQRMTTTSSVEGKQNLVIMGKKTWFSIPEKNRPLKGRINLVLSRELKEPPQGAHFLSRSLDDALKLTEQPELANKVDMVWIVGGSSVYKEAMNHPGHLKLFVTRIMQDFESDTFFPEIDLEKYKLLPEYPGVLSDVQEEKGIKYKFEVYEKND
Procedure, shortened: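 hDHFR inhibition tested at a single concentration of 100 μM, expressed as percent inhibitory activity.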

CYP2D6 [1] = molecular target: T3, CYP2D6 (Homo sapiens, UniProt P10635); assay: in vitro; design: cytochrome P450 isoform inhibition
T3 sequence (P10635 whole entry, canonical isoform): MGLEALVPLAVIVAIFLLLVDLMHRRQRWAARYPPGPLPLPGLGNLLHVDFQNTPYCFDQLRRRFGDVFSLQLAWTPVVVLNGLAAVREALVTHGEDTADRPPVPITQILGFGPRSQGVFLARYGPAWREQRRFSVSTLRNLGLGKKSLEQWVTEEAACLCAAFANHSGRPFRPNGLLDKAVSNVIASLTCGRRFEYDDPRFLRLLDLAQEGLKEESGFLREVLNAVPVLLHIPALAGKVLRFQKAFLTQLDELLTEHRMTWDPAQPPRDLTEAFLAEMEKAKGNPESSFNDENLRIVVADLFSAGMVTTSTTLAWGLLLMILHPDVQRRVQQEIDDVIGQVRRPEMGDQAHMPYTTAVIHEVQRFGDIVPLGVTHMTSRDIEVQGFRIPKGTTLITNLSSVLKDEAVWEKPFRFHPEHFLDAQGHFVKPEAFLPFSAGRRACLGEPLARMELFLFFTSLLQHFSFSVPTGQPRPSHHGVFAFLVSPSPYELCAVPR
Protocol: as §1

CYP2C9 = CYP2C9 (Homo sapiens, UniProt P11712); assay: in vitro; design: cytochrome P450 isoform inhibition
CYP2C9, sequence (P11712 whole entry, canonical isoform): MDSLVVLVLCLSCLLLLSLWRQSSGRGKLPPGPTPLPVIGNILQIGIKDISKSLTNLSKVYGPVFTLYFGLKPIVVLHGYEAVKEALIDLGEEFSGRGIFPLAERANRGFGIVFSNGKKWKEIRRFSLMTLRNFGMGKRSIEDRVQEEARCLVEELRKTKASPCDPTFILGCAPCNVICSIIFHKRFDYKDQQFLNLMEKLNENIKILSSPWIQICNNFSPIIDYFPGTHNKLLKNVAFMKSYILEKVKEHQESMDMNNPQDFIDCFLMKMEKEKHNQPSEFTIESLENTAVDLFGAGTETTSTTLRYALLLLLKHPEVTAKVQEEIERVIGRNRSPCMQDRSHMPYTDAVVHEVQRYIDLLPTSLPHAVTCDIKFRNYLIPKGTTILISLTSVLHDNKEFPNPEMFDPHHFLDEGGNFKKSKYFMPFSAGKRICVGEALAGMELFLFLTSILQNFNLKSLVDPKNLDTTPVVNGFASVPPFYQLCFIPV
Protocol: as §1

CYP1A2 = molecular target: T4, CYP1A2 (Homo sapiens, UniProt P05177); assay: in vitro; design: cytochrome P450 isoform inhibition
T4 sequence (P05177 1-516): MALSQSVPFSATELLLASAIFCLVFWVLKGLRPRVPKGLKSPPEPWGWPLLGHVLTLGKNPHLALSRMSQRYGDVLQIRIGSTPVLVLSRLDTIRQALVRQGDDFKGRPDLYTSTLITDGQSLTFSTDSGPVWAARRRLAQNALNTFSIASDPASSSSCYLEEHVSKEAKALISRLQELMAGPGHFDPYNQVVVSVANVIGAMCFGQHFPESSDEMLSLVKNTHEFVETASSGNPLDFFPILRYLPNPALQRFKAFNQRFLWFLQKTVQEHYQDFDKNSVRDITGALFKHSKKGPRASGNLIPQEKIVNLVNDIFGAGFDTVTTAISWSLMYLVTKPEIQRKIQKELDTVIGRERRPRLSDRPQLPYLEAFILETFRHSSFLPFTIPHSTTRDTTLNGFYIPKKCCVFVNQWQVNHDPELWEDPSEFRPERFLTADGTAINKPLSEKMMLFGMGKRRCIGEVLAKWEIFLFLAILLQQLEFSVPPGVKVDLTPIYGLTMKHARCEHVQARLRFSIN
Protocol: as §1

CYP2C19 = CYP2C19 (Homo sapiens, UniProt P33261); assay: in vitro; design: cytochrome P450 isoform inhibition
CYP2C19, sequence (P33261 whole entry, canonical isoform): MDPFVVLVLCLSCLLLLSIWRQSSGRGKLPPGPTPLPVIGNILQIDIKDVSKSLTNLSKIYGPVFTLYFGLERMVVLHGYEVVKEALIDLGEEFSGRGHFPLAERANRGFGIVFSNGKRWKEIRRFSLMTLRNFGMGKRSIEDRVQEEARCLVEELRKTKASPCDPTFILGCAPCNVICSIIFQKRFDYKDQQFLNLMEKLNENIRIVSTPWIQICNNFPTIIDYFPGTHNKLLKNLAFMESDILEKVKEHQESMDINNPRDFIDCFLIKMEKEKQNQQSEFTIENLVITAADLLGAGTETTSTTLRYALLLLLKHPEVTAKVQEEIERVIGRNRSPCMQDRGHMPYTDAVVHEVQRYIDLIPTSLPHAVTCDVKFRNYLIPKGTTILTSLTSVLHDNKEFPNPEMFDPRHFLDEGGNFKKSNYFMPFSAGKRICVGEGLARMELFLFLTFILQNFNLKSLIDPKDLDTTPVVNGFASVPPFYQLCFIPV
Protocol: as §1

CYP3A4 = CYP3A4 (Homo sapiens, UniProt P08684); assay: in vitro; design: cytochrome P450 isoform inhibition
CYP3A4, sequence (P08684 whole entry, canonical isoform): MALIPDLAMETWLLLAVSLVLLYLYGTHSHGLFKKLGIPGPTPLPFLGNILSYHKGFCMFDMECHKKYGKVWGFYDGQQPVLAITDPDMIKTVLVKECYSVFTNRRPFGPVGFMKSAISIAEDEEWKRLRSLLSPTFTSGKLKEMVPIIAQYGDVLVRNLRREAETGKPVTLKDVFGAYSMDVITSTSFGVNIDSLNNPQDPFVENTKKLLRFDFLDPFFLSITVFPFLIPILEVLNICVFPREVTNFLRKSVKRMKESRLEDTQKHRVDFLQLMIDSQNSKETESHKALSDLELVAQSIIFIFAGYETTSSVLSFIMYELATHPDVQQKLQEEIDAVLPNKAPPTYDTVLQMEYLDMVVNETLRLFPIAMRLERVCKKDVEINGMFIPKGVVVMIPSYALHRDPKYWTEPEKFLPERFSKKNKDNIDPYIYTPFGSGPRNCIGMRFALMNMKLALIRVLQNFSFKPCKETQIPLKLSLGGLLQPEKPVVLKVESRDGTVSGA
Protocol: as §1

786-O = assay: cells; design: mitochondrial toxicity in 786-O renal carcinoma cells; conditions: Homo sapiens, 786-0; read-out: mitochondrial toxicity [IC50 uM]
in vitro = assay: in vitro; design: cytotoxicity, per cent cell growth of A549 cells; conditions: human, a549 cells; read-out: % cell growth A549 at 10uM
CYP2D6 [2] = molecular target: T3, CYP2D6; assay: in vitro; design: cytochrome P450 isoform inhibition liability assay

T1 sequence (Q12809 whole entry): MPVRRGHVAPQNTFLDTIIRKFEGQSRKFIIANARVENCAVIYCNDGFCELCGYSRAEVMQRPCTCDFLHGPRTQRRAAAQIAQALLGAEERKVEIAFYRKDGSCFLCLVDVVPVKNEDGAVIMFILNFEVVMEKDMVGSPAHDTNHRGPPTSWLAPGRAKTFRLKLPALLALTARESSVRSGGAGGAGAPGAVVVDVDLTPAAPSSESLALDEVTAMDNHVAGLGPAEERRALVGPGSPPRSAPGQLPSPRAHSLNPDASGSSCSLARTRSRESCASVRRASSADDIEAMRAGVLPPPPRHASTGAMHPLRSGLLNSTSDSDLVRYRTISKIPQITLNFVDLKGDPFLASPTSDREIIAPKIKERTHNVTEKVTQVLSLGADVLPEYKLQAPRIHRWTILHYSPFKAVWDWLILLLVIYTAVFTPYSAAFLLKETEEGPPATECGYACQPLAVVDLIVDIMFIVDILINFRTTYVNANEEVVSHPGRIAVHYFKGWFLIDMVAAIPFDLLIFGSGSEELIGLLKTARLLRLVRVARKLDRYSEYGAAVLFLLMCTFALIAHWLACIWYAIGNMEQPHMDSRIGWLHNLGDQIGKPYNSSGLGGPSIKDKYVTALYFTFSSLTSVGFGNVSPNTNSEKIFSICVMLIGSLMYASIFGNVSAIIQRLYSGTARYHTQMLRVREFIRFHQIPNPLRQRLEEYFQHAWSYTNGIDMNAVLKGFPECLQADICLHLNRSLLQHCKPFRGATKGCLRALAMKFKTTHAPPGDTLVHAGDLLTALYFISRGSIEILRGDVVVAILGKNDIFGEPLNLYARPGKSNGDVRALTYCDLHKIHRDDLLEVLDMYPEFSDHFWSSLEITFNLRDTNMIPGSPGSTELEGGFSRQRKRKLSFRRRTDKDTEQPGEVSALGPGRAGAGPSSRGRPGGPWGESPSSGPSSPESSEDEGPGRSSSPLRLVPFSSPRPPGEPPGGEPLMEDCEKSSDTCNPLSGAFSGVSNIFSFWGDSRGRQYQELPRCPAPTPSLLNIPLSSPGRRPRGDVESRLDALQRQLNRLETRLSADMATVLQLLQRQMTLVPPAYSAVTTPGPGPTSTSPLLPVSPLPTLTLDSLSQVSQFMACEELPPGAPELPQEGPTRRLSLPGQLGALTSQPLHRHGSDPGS

| Compound | inhibition at 10 µM (hERG) [%] | inhibition at 100 µM (hDHFR) [%] | inhibition at 10 µM (CYP2D6 [1]) [%] | inhibition at 10 µM (CYP2C9) [%] | inhibition at 10 µM (CYP1A2) [%] | inhibition at 10 µM (CYP2C19) [%] | inhibition at 10 µM (CYP3A4) [%] | IC50 (786-O) [µM] | viability at 10 µM (in vitro) [%] | IC50 (CYP2D6 [2]) [µM] |
| --- | --- | --- | --- | --- | --- | --- | --- | --- | --- | --- |
| Nc1nnc(NCc2ccc(-c3ccccc3)cc2)s1 [4m] | 52.6 ± 11.6 | 40 | 53.6 ± 0.6 | 46.9 ± 4.4 | 60.4 ± 4.5 | 22.5 ± 4.7 | 25.6 ± 6.3 | > 100 | 112 ± 9.5 | 11.5 |
| Nc1nnc(NCCc2cccs2)s1 [4o, N2G(2G(thiophenG2Gyl)ethyl)G1,3,4GthiadiazoleG2,5Gdiamine] | 95.4 ± 8 | 24 | 81.2 ± 1.2 | 3.1 ± 4.8 | -2.9 ± 3.4 | -20.9 ± 6.1 | 30.4 ± 4.5 | 17.8 | 105 ± 11.4 | 12.4 |
